In patent publication US9540392B2, “Thienopyrimidines” (BAYER PHARMA AKTIENGESELLSCHAFT, priority 2012, dated 2017):
pIC50: −log10 of the molar value.

Legend:
[1] = target: T1, human full-length MKNK1 (Homo sapiens, UniProt Q9BUB5, T385D); experiment: MKNK1 kinase high ATP assay (TR-FRET); assay type: biochemical; settings: 2 mM ATP, after preincubation with MKNK1; read-out: MKNK1 IC50 (MKNK1 high ATP)
T1 construct: GST (N); purchased Carna Biosciences 02-145; host or cells: insect cells (baculovirus expression system)
How it was run: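 Compound was preincubated 15 min at 22° C. with MKNK1 in 50 mM HEPES pH 7.5, 5 mM MgCl2, 1.0 mM DTT, then the reaction ran 30 min at 22° C. with 2 mM ATP and 0.06 μM biotinylated peptide (final).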

[2] = test system: eIF4E Ser209 phosphorylation in A549 cells; experiment: AlphaScreen SureFire eIF4E Ser209 phosphorylation assay in A549 cells with 20% FCS stimulation; assay type: cell-based; settings: Homo sapiens, read-out: pEIF4e (IC50 of the EIF4e phosphorylation)
Source text: The AlphaScreen SureFire eIF4E Ser209 phoshorylation assay is used to measure the phosphorylation of endogenous eIF4E in cellular lysates. The AlphaScreen SureFire technology allows the detection of phosphorylated proteins in cellular lysates. In this assay, sandwich antibody complexes, which are only formed in the presence of the analyte (p-eIF4E Ser209), are captured by AlphaScreen donor and acceptor beads, bringing them into close proximity. The excitation of the donor bead provokes the release of singlet oxygen molecules that triggers a cascade of energy transfer in the Acceptor beads, resulting in the emission of light at 520-620 nm.
Surefire EIF4e Alphascreen in A549 cells with 20% FCS stimulation
For the assay the AlphaScreen SureFire p-eIF4E Ser209 10K Assay Kit and the AlphaScreen ProteinA Kit (for 10K assay points) both from Perkin Elmer were used. On day one 50.000 A549 cells were plated in a 96-well plate in 100 μL per well in growth medium (DMEM/Hams' F12 with stable Glutamin, 10% FCS) and incubated at 37° C. After attachment of the cells, medium was changed to starving medium (DMEM, 0.1% FCS, without Glucose, with Glutamin, supplemented with 5 g/L Maltose). On day two, test compounds were serially diluted in 50 μL starving medium with a final DMSO concentration of 1% and were added to A549 cells in test plates at a final concentration range from as high 10 μM to as low 10 nM depending on the activities of the tested compounds. Treated cells were incubated at 37° C. for 2 h. 37 ul FCS was added to the wells (=final FCS concentration 20%) for 20 min. Then medium was removed and cells were lysed by adding 50 μL lysis buffer. Plates were then agitated on a plate shaker for 10 min. After 10 min lysis time, 4 μL of the lysate is transferred to a 384 well plate (Proxiplate from Perkin Elmer) and 5 μL Reaction Buffer plus Activation Buffer mix containing AlphaScreen Acceptor beads was added. Plates were sealed with TopSeal-A adhesive film, gently agitated on a plate shaker for 2 hours at room temperature. Afterwards 2 μL Dilution buffer with AlphaScreen Donor beads were added under subdued light and plates were sealed again with TopSeal-A adhesive film and covered with foil. Incubation takes place for further 2 h gently agitation at room temperature. Plates were then measured in an EnVision reader (Perkin Elmer) with the AlphaScreen program. Each data point (compound dilution) was measured as triplicate.
The IC50 values were determined by means of a 4-parameter fit using the company's own software.

T1 sequence (Q9BUB5 1-424 isoform Q9BUB5-2 T344D): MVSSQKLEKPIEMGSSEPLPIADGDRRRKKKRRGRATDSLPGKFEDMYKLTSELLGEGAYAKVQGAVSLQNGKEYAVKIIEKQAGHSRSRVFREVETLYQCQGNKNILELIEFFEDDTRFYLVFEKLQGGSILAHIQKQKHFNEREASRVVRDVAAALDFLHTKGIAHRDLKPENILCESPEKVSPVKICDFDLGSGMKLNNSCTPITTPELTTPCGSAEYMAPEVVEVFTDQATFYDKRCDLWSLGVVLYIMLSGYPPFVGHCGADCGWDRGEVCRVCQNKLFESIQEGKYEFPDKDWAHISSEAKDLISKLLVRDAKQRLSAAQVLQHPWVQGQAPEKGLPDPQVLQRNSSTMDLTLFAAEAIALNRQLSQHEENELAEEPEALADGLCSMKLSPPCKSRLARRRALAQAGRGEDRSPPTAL

pIC50 [1] | pIC50 [2] | SMILES
8.52 | 6.42 | O=C(NCc1ccccc1)C1CCc2c(sc3ncnc(Nc4ccc5[nH]ncc5c4)c23)C1 (stereo not drawn) [Example 21, N-Benzyl-4-(1H-indazol-5-ylamino)-5,6,7,8-tetrahydro[1] benzothieno [2,3-d]pyrimidine-7-carboxamide]
8.80 | 7.21 | COc1cc2[nH]ncc2cc1Nc1ncnc2sc3c(c12)CCC(C(=O)NC(C)C)C3 (racemic) [Example 66, (RS)-4-[(6-Methoxy-1H-indazol-5-yl)amino]-N-(propan-2-yl)-5,6,7,8-tetrahydro[1]benzothieno[2,3-d]pyrimidine-7-carboxamide]
8.30 | 6.43 | Cc1cccc(NC(=O)C2CCc3c(sc4ncnc(Nc5ccc6[nH]ncc6c5)c34)C2)c1 (stereo not drawn) [Example 16, 4-(1H-indazol-5-ylamino)-N-(3-methylphenyl)-5,6,7,8-tetrahydro[1]benzothieno[2,3-d]pyrimidine-7-carboxamide]
8.57 | 6.66 | Cc1ccccc1NC(=O)C1CCc2c(sc3ncnc(Nc4ccc5[nH]ncc5c4)c23)C1 (racemic) [Example 75, (RS)-4-(1H-Indazol-5-ylamino)-N-(2-methylphenyl)-5,6,7,8-tetrahydro[1]benzothieno[2,3-d]pyrimidine-7-carboxamide]
9.30 | 6.46 | COc1cc2[nH]ncc2cc1Nc1ncnc2sc3c(c12)CCC(C(=O)N1CCN(C)CC1)C3 (racemic) [Example 65, (RS)-{4-[(6-Methoxy-1H-indazol-5-yl)amino]-5,6,7,8-tetrahydro[1]benzothieno[2,3-d]pyrimidin-7-yl}(4-methylpiperazin-1-yl)methanone]
8.70 | 6.39 | O=C(NCc1cccc(F)c1)C1CCc2c(sc3ncnc(Nc4ccc5[nH]ncc5c4)c23)C1 (stereo not drawn) [Example 18, N-(3-Fluorobenzyl)-4-(1H-indazol-5-ylamino)-5,6,7,8-tetrahydro[1]benzothieno-[2,3-d]pyrimidine-7-carboxamide]
8.22 |  | O=C(NCCc1ccncc1)C1CCc2c(sc3ncnc(Nc4ccc5[nH]ncc5c4)c23)C1 (stereo not drawn) [Example 36, 4-(1H-Indazol-5-ylamino)-N-[2-(pyridin-4-yl)ethyl]-5,6,7,8-tetrahydro[1] benzothieno [2,3-d]pyrimidine-7-carboxamide]
7.95 |  | Cn1nccc1NC(=O)C1CCc2c(sc3ncnc(Nc4ccc5[nH]ncc5c4)c23)C1 (racemic) [Example 117, (RS)-4-(1H-indazol-5-ylamino)-N-(1-methyl-1H-pyrazol-5-yl)-5,6,7,8-tetrahydro[1]benzothieno[2,3-d]pyrimidine-7-carboxamide]
7.69 |  | CCN(CC)CCN(C)C(=O)C1CCc2c(sc3ncnc(Nc4ccc5[nH]ncc5c4)c23)C1 (racemic) [Example 95, (RS)-N-[2-(diethylamino)ethyl]-4-(1H-indazol-5-ylamino)-N-methyl-5,6,7,8-tetrahydro[1]benzothieno[2,3-d]pyrimidine-7-carboxamide]
9.15 |  | CCN(C(=O)C1CCc2c(sc3ncnc(Nc4cc5cn[nH]c5cc4OC)c23)C1)C(C)C (stereo not drawn) [Example 67, N-Ethyl-4-[(6-Methoxy-1H-indazol-5-yl)amino]-N-(propan-2-yl)-5,6,7,8-tetrahydro[1]benzothieno[2,3-d]pyrimidine-7-carboxamide]
8.96 |  | CCOc1cc2[nH]ncc2cc1Nc1ncnc2sc3c(c12)CCC(C(=O)N(C)CC1CC1)C3 (racemic) [Example 240, (RS)—N-(Cyclopropylmethyl)-4-[(6-ethoxy-1H-indazol-5-yl)amino]-N-methyl-5,6,7,8-tetrahydro[1]benzothieno[2,3-d]pyrimidine-7-carboxamide]
7.43 |  | O=C(O)C1CCc2c(sc3ncnc(Nc4cc5cn[nH]c5cc4F)c23)C1 (stereo not drawn) [Example 55, 4-[(6-Fluoro-1H-indazol-5-yl)amino]-5,6,7,8-tetrahydro[1]benzothieno[2,3-d]pyrimidine-7-carboxylic acid]
7.72 |  | CCOC(=O)C1CCc2c(sc3ncnc(Nc4cc5cn[nH]c5cc4F)c23)C1 (stereo not drawn) [Example 54, Ethyl 4-[(6-fluoro-1H-indazol-5-yl)amino]-5,6,7,8-tetrahydro[1]benzothieno[2,3-d]pyrimidine-7-carboxylate]
7.96 |  | O=C(C1CCc2c(sc3ncnc(Nc4ccc5[nH]ncc5c4)c23)C1)N1CCOCC1 (stereo not drawn) [Example 47, [4-(1H-Indazol-5-ylamino)-5,6,7,8-tetrahydro[1]benzothieno [2,3-d]pyrimidin-7-yl](morpholin-4-yl)methanone]
8.09 |  | COCCN(CCOC)C(=O)C1CCc2c(sc3ncnc(Nc4ccc5[nH]ncc5c4)c23)C1 (racemic) [Example 107, (RS)-4-(1H-indazol-5-ylamino)-N,N-bis(2-methoxyethyl)-5,6,7,8-tetrahydro[1]benzothieno[2,3-d]pyrimidine-7-carboxamide]
9.52 |  | CCN(CCO)C(=O)C1CCc2c(sc3ncnc(Nc4cc5cn[nH]c5cc4OC(C)C)c23)C1 (racemic) [Example 214, (RS)—N-ethyl-N-(2-hydroxyethyl)-4-{[6-(propan-2-yloxy)-1H-indazol-5-yl]amino}-5,6,7,8-tetrahydro[1]benzothieno[2,3-d]pyrimidine-7-carboxamide]
8.52 |  | Cc1ccccc1NC(=O)C1CCc2c(sc3ncnc(Nc4ccc5[nH]ncc5c4)c23)C1 (stereo not drawn) [Example 15, 4-(1H-indazol-5-ylamino)-N-(2-methylphenyl)-5,6,7,8-tetrahydro[1]benzothieno[2,3-d]pyrimidine-7-carboxamide]
9.22 |  | CC(C)Oc1cc2[nH]ncc2cc1Nc1ncnc2sc3c(c12)CCC(C(=O)N1[C@H](C)CC[C@H]1C)C3 (mixture of isomers) [Example 227, [(2R,5R)-2,5-Dimethylpyrrolidin-1-yl]{(7RS)-4-[(6-isopropoxy-1H-indazol-5-yl)amino]-5,6,7,8-tetrahydro[1]benzothieno[2,3-d]pyrimidin-7-yl}methanone]
7.79 |  | CCOC(=O)N1CCN(C(=O)C2CCc3c(sc4ncnc(Nc5ccc6[nH]ncc6c5)c34)C2)CC1 (racemic) [Example 103, (RS)-ethyl4-{[4-(1H-indazol-5-ylamino)-5,6,7,8-tetrahydro[1]benzothieno[2,3-d]pyrimidin-7-yl]carbonyl}piperazine-1-carboxylate]
8.00 |  | CC(=O)N(C)C1CCN(C(=O)C2CCc3c(sc4ncnc(Nc5ccc6[nH]ncc6c5)c34)C2)C1 (racemic) [Example 198, (RS)-N-(1-{[4-(1H-indazol-5-ylamino)-5,6,7,8-tetrahydro[1]benzothieno[2,3-d]pyrimidin-7-yl]carbonyl}pyrrolidin-3-yl)-N-methylacetamide]
8.28 |  | CN(Cc1ccsc1)C(=O)C1CCc2c(sc3ncnc(Nc4ccc5[nH]ncc5c4)c23)C1 (racemic) [Example 162, (RS)-4-(1H-indazol-5-ylamino)-N-methyl-N-(thiophen-3-ylmethyl)-5,6,7,8-tetrahydro[1]benzothieno[2,3-d]pyrimidine-7-carboxamide]
9.40 |  | COc1cc2[nH]ncc2cc1Nc1ncnc2sc3c(c12)CCC(C(=O)N(C)CCO)C3 (racemic) [Example 172, (RS)—N-(2-Hydroxyethyl)-4-[(6-methoxy-1H-indazol-5-yl)amino]-N-methyl-5,6,7,8-tetrahydro[1]benzothieno[2,3-d]pyrimidine-7-carboxamide]
7.99 |  | O=C(C1CCc2c(sc3ncnc(Nc4ccc5[nH]ncc5c4)c23)C1)N1CCC(CO)CC1 (racemic) [Example 132, (RS)-[4-(hydroxymethyl)piperidin-1-yl][4-(1H-indazol-5-ylamino)-5,6,7,8-tetrahydro[1]benzothieno[2,3-d]pyrimidin-7-yl]methanone]
8.92 |  | CCCN(C)C(=O)C1CCc2c(sc3ncnc(Nc4cc5cn[nH]c5cc4OCC)c23)C1 (racemic) [Example 253, (RS)-4-[(6-Ethoxy-1H-indazol-5-yl)amino]-N-methyl-N-propyl-5,6,7,8-tetrahydro[1]benzothieno[2,3-d]pyrimidine-7-carboxamide]
